Test results from patent publication US8030357B2, “Use of bupropion metabolites for the treatment of inflammatory disorders” (Biocopea Limited, priority 2006, dated 2011).
“Also recorded” adds a separate entry of the source.

Key:
[1] = test system: LPS-induced model of cytokine release; assay: LPS Mouse Assay, overall cytokine modulation; format: in vivo, Balb C ByJ mice; conditions: LPS-challenged mice, serum TNFα and IL-10
Experimental: (§1) 7 week old Balb C ByJ mice (24-28 g) were administered, either by i.p. (5 ml/kg) or oral (10 ml/kg) administration, with vehicle or test article. 30 minutes later these animals were challenged with an intraperitoneal injection of 1 mg/kg LPS. 2 hours after LPS challenge blood samples were collected under light isoflurane anaesthesia into normal tubes by retro-orbital puncture. Samples were allowed to clot at room temperature and then spun at 6000 g for 3 min at 4° C. Serum was stored at −20° C. until use. Serum TNFα and IL-10 levels were analysed in duplicate by ELISA technique.

[2] = test system: dextran sulphate induced colonic inflammation; assay: DSS Induced Colitis; format: in vivo, BDF1 male mice; conditions: mice, 3% dextran sulphate
Experimental: 8-10 week old BDF1 male mice (˜30 g) were housed in normal conditions. At the start of the study normal water was exchanged for a 3% dextran sulphate solution to induce colonic inflammation. Concurrently actarit and the positive control budesonide were administered rectally twice a day for 7 days. On day 8 the animal were sacrificed and the large intestine was removed. The lower two thirds were assessed for histological severity (scoring system; 1 mild to 4 severe). Mice were assessed for cumulative rectal bleeding scores, diarrheal scores and cumulative hemoccult measurements.

IL-10 = assay: LPS Mouse Assay, serum IL-10; format: in vivo, Balb C ByJ mice; conditions: mice, i.p. or oral dosing 30 minutes before 1 mg/kg LPS i.p.; serum 2 hours after LPS, ELISA
Experimental: as §1

adjuvant arthritis = assay: Rat Adjuvant Assay; format: in vivo, Male Wistar rats; conditions: rats, oral once a day from day 11; for paw oedema / paw inflammation: doses 3, 10 and 30 mg/kg
Experimental: Male Wistar rats (180 to 200 g) were inoculated by subplantar injection of Freund's adjuvant (suspension of Mycobacterium butyricum in mineral oil) into the right paw at day 0. Sham inoculations were injected in the same way with 0.9% saline in matched Male Wistar rats. On day 2, animals were weighed. On days 3, 4, 7, 9 and 11, animals were weighed and both their right and left hind paws were measured by plethsymometry by submerging the paw up to the tibiotarsal joint. On day 11, rats with left hind paw volumes increased by 20% were selected for continuance in the study. On the same day, continuance rats were administered test article orally (10 ml/kg in distilled water) and from then on once a day until the completion of the study. Left and right hind paw volumes were measured on days 11, 14, 15, 16, 18 and 21.

[3] = test system: intraplantar carrageenan induced paw oedema; assay: Carrageenan Paw Assay; format: in vivo, male Wistar rats; conditions: rats, oral gavage half an hour before carrageenan; paw volume AUC 1-5 hours
Experimental: Fasted (18 hour) male Wistar rats (105-130 g) were weighed and a basal mercury plethysmometer reading was taken of the right hind paw by submerging the paw in the mercury up to the tibiotarsal joint. Subsequently, vehicles, reference items and test articles were administered by oral gavage (10 ml/kg). Half an hour after treatment, 0.1 ml of 2% carrageenan in 0.9% saline was injected into the subplanatar area of the right hind paw. The right paw was measured again with the plethysmometer at 1, 2, 3, 4 and 5 hours after carrageenan administration. Paw volume effects was expressed as the area under the curve for paw volume over time. Activity (inhibition of paw volume) was expressed as the % antiinflammatory activity versus the vehicle control.

TNFα = assay: LPS Mouse Assay, serum TNFα; format: in vivo, Balb C ByJ mice; conditions: mice, i.p. or oral dosing 30 minutes before 1 mg/kg LPS i.p.; serum 2 hours after LPS, ELISA
Experimental: as §1

SJL mouse EAE model = assay: Experimental Autoimmune Encephalitis; format: in vivo; conditions: SJL mice, orally 10 mg/kg once a day from the first day
Experimental: Experimental Autoimmune Encephalitis
Acclimatised SJL mice were sensitised by a subcutaneous injection proteolipid protein (PLP) in Freund's complete adjuvant (CFA) acting as an encephalitogenic inoculum. Innoculum was administered subcutaneously at a concentration of 125 μg PLP/300 μg CFA in a volume of 200 μl. 48 hours later, an intraperitoneal injection of pertussis toxin (PTX) was administered at a dose of 20 μg/kg, to increase blood-brain barrier permeability.
Compound (6) was administered from the first day of the experiment and once a day until the end, orally at a dose of 10 mg/kg. Copaxone was administered intraperitoneally at a dose of 25 mg/kg. Throughout the experiment, careful clinical examinations and body weights were taken to observe the well being of the animal.

| Compound | cytokine modulatory activity [1] | effect on histological scores induced by oral dextran sulphate ([2]; top dose) | effect on IL-10 secretion (IL-10) | protective effects against adjuvant arthritis (adjuvant arthritis) | paw oedema / paw inflammation (adjuvant arthritis) | anti-inflammatory effect against carrageenan induced paw oedema [3] | effect on TNF alpha secretion induced by LPS (TNFα) | comparative effectiveness of (6) against (5) in DSS colitis [2] | effect on histological scores induced by oral dextran sulphate ([2]; lower dose) | effect on second relapse of EAE (SJL mouse EAE model) |
| --- | --- | --- | --- | --- | --- | --- | --- | --- | --- | --- |
| (+/−)-(erythro)-2-tert-Butylamino-1-(3-chlorophenyl)propan-1-ol [Compound 8] | cytokine modulatory effects |  |  |  |  |  |  |  |  |  |
| (−)-(erythro)-2-tert-Butylamino-1-(3-chlorophenyl)propan-1-ol [Compound 5] | good cytokine modulatory profiles | marked effect | no effect on IL-10 levels | protective effects | reduced paw oedema at the top two doses | dose-dependant anti-inflammatory effect | inhibited TNFα production |  |  |  |
| CC(NC(C)(C)C)C(=O)c1cccc(Cl)c1 (stereo not shown) [Compound 3, 2-tert-Butylamino-1-(3-chlorophenyl)propan-1-one, reference compound] | very weak cytokine modulatory activity |  | not present |  |  |  | small effect |  |  |  |
| C[C@@H](NC(C)(C)C)[C@H](O)c1cccc(Cl)c1 (racemic) [Compound 7, (+/−)-(threo)-2-tert-Butylamino-1-(3-chlorophenyl)propan-1-ol] |  |  |  |  |  |  | inhibiting TNF alpha at all doses administrated; also recorded: small inhibitory effect on TNF alpha at the highest dose |  |  |  |
| (+)-(erythro)-2-tert-Butylamino-1-(3-chlorophenyl)propan-1-ol [Compound 6] | good cytokine modulatory profiles | marked effect | potentiated II-10 secretion | protective effects | inhibited paw inflammation at all doses | dose-dependant anti-inflammatory effect | inhibited | marginally more effective | large ameliorating effect | completely ameliorated the second relapse |
